# Tests used:
# [1] = molecular target: T1, Receptor-type tyrosine-protein kinase FLT3 (Homo sapiens, UniProt P36888); test: Inhibition of FLT3 by ELISA-based kinase assay
# T1 sequence (P36888 whole entry): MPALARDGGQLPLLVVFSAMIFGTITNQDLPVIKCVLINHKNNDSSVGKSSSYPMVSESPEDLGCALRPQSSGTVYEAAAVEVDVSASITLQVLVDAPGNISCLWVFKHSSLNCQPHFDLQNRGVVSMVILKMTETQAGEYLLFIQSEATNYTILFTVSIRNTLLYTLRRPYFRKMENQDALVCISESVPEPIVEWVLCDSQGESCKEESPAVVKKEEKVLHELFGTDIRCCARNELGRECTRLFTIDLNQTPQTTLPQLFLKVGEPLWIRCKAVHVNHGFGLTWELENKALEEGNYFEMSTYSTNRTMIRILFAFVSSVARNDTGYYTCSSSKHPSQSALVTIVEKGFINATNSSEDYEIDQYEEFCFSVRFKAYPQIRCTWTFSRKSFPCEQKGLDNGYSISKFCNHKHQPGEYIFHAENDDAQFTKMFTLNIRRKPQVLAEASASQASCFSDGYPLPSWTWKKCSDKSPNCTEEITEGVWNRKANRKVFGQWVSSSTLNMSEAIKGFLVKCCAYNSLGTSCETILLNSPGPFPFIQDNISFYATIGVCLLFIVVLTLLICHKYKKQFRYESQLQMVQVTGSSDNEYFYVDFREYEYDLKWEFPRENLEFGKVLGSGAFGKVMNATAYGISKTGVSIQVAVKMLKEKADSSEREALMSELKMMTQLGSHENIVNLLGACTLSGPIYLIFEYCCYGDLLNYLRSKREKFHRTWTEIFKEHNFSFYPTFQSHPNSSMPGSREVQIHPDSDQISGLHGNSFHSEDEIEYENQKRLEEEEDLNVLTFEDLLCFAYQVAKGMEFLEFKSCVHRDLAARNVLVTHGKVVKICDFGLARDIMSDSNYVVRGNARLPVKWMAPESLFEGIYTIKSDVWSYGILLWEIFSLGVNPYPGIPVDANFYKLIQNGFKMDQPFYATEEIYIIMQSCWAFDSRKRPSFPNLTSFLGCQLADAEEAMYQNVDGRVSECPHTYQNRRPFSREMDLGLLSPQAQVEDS
# [2] = cells; conditions: Mus musculus, BaPTC2
# [3] = molecular target: Tyrosine-protein kinase ABL1 (Homo sapiens, UniProt P00519)
# Tyrosine-protein kinase ABL1, sequence (P00519 whole entry): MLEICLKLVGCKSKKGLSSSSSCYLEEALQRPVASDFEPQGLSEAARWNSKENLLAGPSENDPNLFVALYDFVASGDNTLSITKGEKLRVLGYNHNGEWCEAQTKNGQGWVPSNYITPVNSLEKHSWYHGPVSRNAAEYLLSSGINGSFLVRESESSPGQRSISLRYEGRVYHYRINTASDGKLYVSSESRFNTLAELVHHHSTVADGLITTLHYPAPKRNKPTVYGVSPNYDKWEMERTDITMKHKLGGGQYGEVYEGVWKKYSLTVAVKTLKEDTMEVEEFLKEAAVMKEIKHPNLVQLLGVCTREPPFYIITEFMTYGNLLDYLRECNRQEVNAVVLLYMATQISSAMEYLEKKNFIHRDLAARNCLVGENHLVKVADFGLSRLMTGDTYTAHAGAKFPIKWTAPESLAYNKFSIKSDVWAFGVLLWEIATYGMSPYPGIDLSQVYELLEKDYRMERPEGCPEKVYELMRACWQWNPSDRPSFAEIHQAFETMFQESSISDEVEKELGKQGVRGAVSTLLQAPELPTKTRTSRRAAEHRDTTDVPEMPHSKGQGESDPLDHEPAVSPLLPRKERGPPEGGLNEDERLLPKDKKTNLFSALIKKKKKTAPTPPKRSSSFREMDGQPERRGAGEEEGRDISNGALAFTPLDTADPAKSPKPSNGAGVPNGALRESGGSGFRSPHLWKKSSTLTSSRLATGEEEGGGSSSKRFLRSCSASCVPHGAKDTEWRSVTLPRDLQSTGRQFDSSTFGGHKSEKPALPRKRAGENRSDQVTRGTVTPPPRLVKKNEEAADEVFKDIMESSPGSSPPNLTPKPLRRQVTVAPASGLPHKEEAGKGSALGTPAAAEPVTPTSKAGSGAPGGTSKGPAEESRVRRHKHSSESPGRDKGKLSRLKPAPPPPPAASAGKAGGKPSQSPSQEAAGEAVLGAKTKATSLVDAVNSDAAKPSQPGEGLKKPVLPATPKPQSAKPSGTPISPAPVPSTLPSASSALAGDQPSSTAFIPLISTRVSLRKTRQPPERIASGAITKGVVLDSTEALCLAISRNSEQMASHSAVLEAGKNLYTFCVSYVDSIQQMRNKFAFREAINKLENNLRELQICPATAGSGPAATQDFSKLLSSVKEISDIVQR
# [4] = molecular target: ALK tyrosine kinase receptor (Homo sapiens, UniProt Q9UM73); test: Inhibition of ALK by ELISA-based kinase assay
# ALK tyrosine kinase receptor, sequence (Q9UM73 whole entry): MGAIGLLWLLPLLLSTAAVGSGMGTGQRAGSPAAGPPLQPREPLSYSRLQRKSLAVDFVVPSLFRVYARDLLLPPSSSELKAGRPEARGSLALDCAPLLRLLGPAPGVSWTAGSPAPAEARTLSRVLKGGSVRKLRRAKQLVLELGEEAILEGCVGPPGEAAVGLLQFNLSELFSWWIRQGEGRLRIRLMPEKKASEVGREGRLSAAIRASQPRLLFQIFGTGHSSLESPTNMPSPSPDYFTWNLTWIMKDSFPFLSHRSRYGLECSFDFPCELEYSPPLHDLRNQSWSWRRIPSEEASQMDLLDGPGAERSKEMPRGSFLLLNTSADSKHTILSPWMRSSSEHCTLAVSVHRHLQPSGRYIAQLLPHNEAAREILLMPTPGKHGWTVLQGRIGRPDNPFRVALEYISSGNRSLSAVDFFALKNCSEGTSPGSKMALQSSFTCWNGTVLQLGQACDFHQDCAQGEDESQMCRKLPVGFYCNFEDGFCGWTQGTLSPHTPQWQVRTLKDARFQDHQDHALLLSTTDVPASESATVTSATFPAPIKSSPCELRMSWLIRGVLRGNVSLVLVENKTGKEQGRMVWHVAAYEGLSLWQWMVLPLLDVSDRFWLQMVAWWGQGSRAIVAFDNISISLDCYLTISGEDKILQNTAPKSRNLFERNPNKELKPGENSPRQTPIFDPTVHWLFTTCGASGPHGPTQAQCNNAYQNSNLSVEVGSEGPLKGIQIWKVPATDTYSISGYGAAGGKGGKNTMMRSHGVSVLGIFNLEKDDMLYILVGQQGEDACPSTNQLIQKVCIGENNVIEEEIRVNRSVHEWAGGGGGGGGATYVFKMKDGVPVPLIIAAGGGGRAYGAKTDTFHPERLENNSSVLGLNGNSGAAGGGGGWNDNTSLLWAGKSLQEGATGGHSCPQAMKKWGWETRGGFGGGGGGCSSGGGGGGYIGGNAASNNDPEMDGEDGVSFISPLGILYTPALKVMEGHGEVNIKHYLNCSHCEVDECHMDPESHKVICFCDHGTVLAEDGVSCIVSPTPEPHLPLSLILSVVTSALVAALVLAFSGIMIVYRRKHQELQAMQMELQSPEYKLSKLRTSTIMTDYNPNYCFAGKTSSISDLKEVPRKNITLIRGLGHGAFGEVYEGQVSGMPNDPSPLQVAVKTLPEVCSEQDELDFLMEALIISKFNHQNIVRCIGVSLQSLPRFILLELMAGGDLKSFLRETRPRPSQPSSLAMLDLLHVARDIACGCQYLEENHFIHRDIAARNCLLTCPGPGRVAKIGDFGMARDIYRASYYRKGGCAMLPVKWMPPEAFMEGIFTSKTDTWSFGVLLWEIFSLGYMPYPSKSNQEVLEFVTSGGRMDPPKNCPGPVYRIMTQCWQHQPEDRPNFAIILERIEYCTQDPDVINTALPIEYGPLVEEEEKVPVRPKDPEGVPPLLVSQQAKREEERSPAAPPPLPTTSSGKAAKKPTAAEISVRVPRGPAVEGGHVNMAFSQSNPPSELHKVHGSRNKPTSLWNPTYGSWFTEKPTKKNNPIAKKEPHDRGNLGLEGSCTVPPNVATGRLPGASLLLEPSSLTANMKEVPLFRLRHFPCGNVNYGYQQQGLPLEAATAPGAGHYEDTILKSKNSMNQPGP
# [5] = cells; conditions: Mus musculus, BaF3
IC50 [1],IC50 [2],IC50 [3],IC50 [4],IC50 [5],Structure (SMILES)
1.8 µM,16 µM,> 50 µM,> 50 µM,> 50 µM,O=C1Nc2ccccc2/C1=C\c1ccc(O)cc1
0.4 µM,10 µM,> 50 µM,> 50 µM,10 µM,Cc1cccc2c1/C(=C/c1ccc(N(C)C)c3ccccc13)C(=O)N2
8.7 µM,0.16 µM,> 50 µM,18 µM,0.18 µM,CN(C)S(=O)(=O)c1ccc2c(c1)/C(=C/c1cc3c([nH]1)CCCC3)C(=O)N2
4.3 µM,0.025 µM,19 µM,5.4 µM,2.6 µM,CCOC(=O)c1c(C)[nH]c(/C=C2\C(=O)Nc3ccccc32)c1C
–,0.22 µM,–,–,1.2 µM,CCN(CC)CCNC(=O)c1c(C)[nH]c(/C=C2\C(=O)Nc3ccc(F)cc32)c1C [SUNITINIB]

# Reference: ChEMBL document CHEMBL1156925, “Synthesis, structure-activity relationship and crystallographic studies of 3-substituted indolin-2-one RET inhibitors” (Bioorg Med Chem, 2010)
